Active and inactive are the calls of the source.
Experiments:
Type in all cases: functional
HCT-15 = assay: Cytotoxicity against human HCT15 cells assessed as cell growth at 10 uM after 48 hrs by sulforhodamine B assay
Malme-3M = assay: Cytotoxicity against human MALME-3M cells assessed as cell growth at 10 uM after 48 hrs by sulforhodamine B assay
Hs-578T = assay: Cytotoxicity against human Hs 578T cells assessed as cell growth at 10 uM after 48 hrs by sulforhodamine B assay
NCI-H226 = assay: Cytotoxicity against human NCI-H226 cells assessed as cell growth at 10 uM after 48 hrs by sulforhodamine B assay
SF-539 = assay: Cytotoxicity against human SF539 cells assessed as cell growth at 10 uM after 48 hrs by sulforhodamine B assay
KM12 = assay: Cytotoxicity against human KM12 cells assessed as cell growth at 10 uM after 48 hrs by sulforhodamine B assay
COLO 205 = assay: Cytotoxicity against human COLO205 cells assessed as cell growth at 10 uM after 48 hrs by sulforhodamine B assay
NCI-H460 = assay: Cytotoxicity against human NCI-H460 cells assessed as cell growth at 10 uM after 48 hrs by sulforhodamine B assay
SK-MEL-28 = assay: Cytotoxicity against human SK-MEL-28 cells assessed as cell growth at 10 uM after 48 hrs by sulforhodamine B assay
UACC-257 = assay: Cytotoxicity against human UACC257 cells assessed as cell growth at 10 uM after 48 hrs by sulforhodamine B assay
CCRF-CEM = assay: Cytotoxicity against human CCRF-CEM cells assessed as cell growth at 10 uM after 48 hrs by sulforhodamine B assay
K562 = assay: Cytotoxicity against human K562 cells assessed as cell growth at 10 uM after 48 hrs by sulforhodamine B assay
HL-60(TB) = assay: Cytotoxicity against human HL-60(TB) cells assessed as cell growth at 10 uM after 48 hrs by sulforhodamine B assay
SW-620 = assay: Cytotoxicity against human SW620 cells assessed as cell growth at 10 uM after 48 hrs by sulforhodamine B assay
U-251 = assay: Cytotoxicity against human U251 cells assessed as cell growth at 10 uM after 48 hrs by sulforhodamine B assay
OVCAR-4 = assay: Cytotoxicity against human OVCAR4 cells assessed as cell growth at 10 uM after 48 hrs by sulforhodamine B assay
OVCAR-5 = assay: Cytotoxicity against human OVCAR5 cells assessed as cell growth at 10 uM after 48 hrs by sulforhodamine B assay
HOP-62 = assay: Cytotoxicity against human HOP62 cells assessed as cell growth at 10 uM after 48 hrs by sulforhodamine B assay
PC-3 = assay: Cytotoxicity against human PC3 cells assessed as cell growth at 10 uM after 48 hrs by sulforhodamine B assay
NCI-H322M = assay: Cytotoxicity against human NCI-H322M cells assessed as cell growth at 10 uM after 48 hrs by sulforhodamine B assay
UACC-62 = assay: Cytotoxicity against human UACC62 cells assessed as cell growth at 10 uM after 48 hrs by sulforhodamine B assay
SF-268 = assay: Cytotoxicity against human SF268 cells assessed as cell growth at 10 uM after 48 hrs by sulforhodamine B assay
A498 = assay: Cytotoxicity against human A498 cells assessed as cell growth at 10 uM after 48 hrs by sulforhodamine B assay
ACHN = assay: Cytotoxicity against human ACHN cells assessed as cell growth at 10 uM after 48 hrs by sulforhodamine B assay
SNB-19 = assay: Cytotoxicity against human SNB19 cells assessed as cell growth at 10 uM after 48 hrs by sulforhodamine B assay
T47D = assay: Cytotoxicity against human T47D cells assessed as cell growth at 10 uM after 48 hrs by sulforhodamine B assay
BT-549 = assay: Cytotoxicity against human BT549 cells assessed as cell growth at 10 uM after 48 hrs by sulforhodamine B assay
UO-31 = assay: Cytotoxicity against human UO31 cells assessed as cell growth at 10 uM after 48 hrs by sulforhodamine B assay
SR = assay: Cytotoxicity against human SR cells assessed as cell growth at 10 uM after 48 hrs by sulforhodamine B assay
MCF7 = assay: Cytotoxicity against human MCF7 cells assessed as cell growth at 10 uM after 48 hrs by sulforhodamine B assay
NCI-H23 = assay: Cytotoxicity against human NCI-H23 cells assessed as cell growth at 10 uM after 48 hrs by sulforhodamine B assay
SK-OV-3 = assay: Cytotoxicity against human SKOV3 cells assessed as cell growth at 10 uM after 48 hrs by sulforhodamine B assay
RXF 393 = assay: Cytotoxicity against human RXF393 cells assessed as cell growth at 10 uM after 48 hrs by sulforhodamine B assay
OVCAR-8 = assay: Cytotoxicity against human OVCAR8 cells assessed as cell growth at 10 uM after 48 hrs by sulforhodamine B assay
SF-295 = assay: Cytotoxicity against human SF295 cells assessed as cell growth at 10 uM after 48 hrs by sulforhodamine B assay
HCT-116 = assay: Cytotoxicity against human HCT116 cells assessed as cell growth at 10 uM after 48 hrs by sulforhodamine B assay
OVCAR-3 = assay: Cytotoxicity against human OVCAR-3 cells assessed as cell growth at 10 uM after 48 hrs by sulforhodamine B assay
HOP-92 = assay: Cytotoxicity against human HOP92 cells assessed as cell growth at 10 uM after 48 hrs by sulforhodamine B assay
HCC 2998 = assay: Cytotoxicity against human HCC2998 cells assessed as cell growth at 10 uM after 48 hrs by sulforhodamine B assay
EKVX = assay: Cytotoxicity against human EKVX cells assessed as cell growth at 10 uM after 48 hrs by sulforhodamine B assay
TK-10 = assay: Cytotoxicity against human TK10 cells assessed as cell growth at 10 uM after 48 hrs by sulforhodamine B assay
IGROV-1 = assay: Cytotoxicity against human IGROV1 cells assessed as cell growth at 10 uM after 48 hrs by sulforhodamine B assay
SK-MEL-5 = assay: Cytotoxicity against human SK-MEL-5 cells assessed as cell growth at 10 uM after 48 hrs by sulforhodamine B assay
MDA-MB-468 = assay: Cytotoxicity against human MDA-MB-468 cells assessed as cell growth at 10 uM after 48 hrs by sulforhodamine B assay
HT-29 = assay: Cytotoxicity against human HT-29 cells assessed as cell growth at 10 uM after 48 hrs by sulforhodamine B assay
MOLT-4 = assay: Cytotoxicity against human MOLT4 cells assessed as cell growth at 10 uM after 48 hrs by sulforhodamine B assay
LOX IMVI = assay: Cytotoxicity against human LOXIMVI cells assessed as cell growth at 10 uM after 48 hrs by sulforhodamine B assay
MDA-MB-435 = assay: Cytotoxicity against human MDA-MB-435 cells assessed as cell growth at 10 uM after 48 hrs by sulforhodamine B assay
SK-MEL-2 = assay: Cytotoxicity against human SK-MEL-2 cells assessed as cell growth at 10 uM after 48 hrs by sulforhodamine B assay
M14 = assay: Cytotoxicity against human M14 cells assessed as cell growth at 10 uM after 48 hrs by sulforhodamine B assay
NCI-H522 = assay: Cytotoxicity against human NCI-H522 cells assessed as cell growth at 10 uM after 48 hrs by sulforhodamine B assay
SN12C = assay: Cytotoxicity against human SN12C cells assessed as cell growth at 10 uM after 48 hrs by sulforhodamine B assay
RPMI-8226 = assay: Cytotoxicity against human RPMI8226 cells assessed as cell growth at 10 uM after 48 hrs by sulforhodamine B assay
MDA-MB-231 = assay: Cytotoxicity against human MDA-MB-231 cells assessed as cell growth at 10 uM after 48 hrs by sulforhodamine B assay
A549 = assay: Cytotoxicity against human A549 cells assessed as cell growth at 10 uM after 48 hrs by sulforhodamine B assay
SNB-75 = assay: Cytotoxicity against human SNB75 cells assessed as cell growth at 10 uM after 48 hrs by sulforhodamine B assay
786-0 = assay: Cytotoxicity against human 786-0 cells assessed as cell growth at 10 uM after 48 hrs by sulforhodamine B assay
DU-145 = assay: Cytotoxicity against human DU145 cells assessed as cell growth at 10 uM after 48 hrs by sulforhodamine B assay

Measured: Activity

CCCc1cc(=O)oc2c(C)c(OCC(=O)n3nc(C)cc3C)ccc12
inactive: all assays above

Cc1cc(C)n(C(=O)COc2ccc3c(-c4ccccc4)cc(=O)oc3c2C)n1
inactive: all assays above
